# Literature values as cited in paper PMC11133798, “Vosoritide treatment for children with hypochondroplasia: a phase 2 trial” (eClinicalMedicine, 2024).
# No end group written: not given here.
# How the values were obtained:
# L613V/+ mice = details: by 2 weeks of treatment; catch up began after 1 week; ref 26 (protocol list); cited from earlier work
# Excerpt: They then proceeded to give these mice a MEK inhibitor.
# [1] = test system: children with hypochondroplasia; details: cited from earlier work
# Excerpt: As there are no currently approved medications for hypochondroplasia, recombinant human growth hormone (rhGH) has been used off-label in patients with hypochondroplasia with variable efficacy. To date, there are no controlled trials of rhGH in children with hypochondroplasia. […] However, growth velocity slowed substantially after the first year resulting in a total increase in height ...
# rat chondrosarcoma cells = details: CNP treatment; ref 36 (protocol list); cited from earlier work
# Excerpt: Individuals with heterozygous defects in Aggrecan present with dominantly inherited short stature often with advanced bone ages and premature growth cessation 32,33.
# [2] = test system: rat chondrosarcoma cell lines, NPR2 homozygous knock out; details: ref 23 (protocol list); cited from earlier work
# Excerpt: (§1) Our group identified pathogenic mutations in NPR2 in ~2% of ~400 patients presenting with short stature 22. The degree of short stature ...
# [3] = test system: rat chondrosarcoma cell lines, NPR2 heterozygous knock out; details: ref 23 (protocol list); cited from earlier work
# Excerpt: as §1
# [4] = test system: mouse model with Braf mutation (p.Q241R); details: CNP administration; ref 28 (protocol list); cited from earlier work
# [5] = test system: mice deficient in Nf1 in type II collagen producing cells; details: daily injections of CNP; ref 27 (protocol list); cited from earlier work
# [6] = meta-analysis of 7 studies, 113 children with hypochondroplasia
compound,measurement,setting,value
O=C(NOC[C@H](O)CO)c1ccc(F)c(F)c1Nc1ccc(I)cc1F [PD0325901],Body length,L613V/+ mice,the same length as untreated WT mice
rhGH: recombinant human growth hormone used off-label in hypochondroplasia,Body disproportion,"[1]; higher dose of rhGH, after three years of treatment",significant worsening of body disproportion
same,Mean first year increase in height SDS,[1]; [6],0.41 SD
same,Total increase in height after 3 years,[1]; [6],0.61 SD
"CNP: endogenous C-type natriuretic peptide, ligand of NPR-B (GLSKGCFGLKLDRIGSMSGLGC; ends and bridges not checked; cysteine pairing not given here; UniProt P23582 105-126, looked up)",Extracellular matrix after FGF2 administration,rat chondrosarcoma cells,rescue the loss of extracellular matrix
same,cGMP response to CNP,[2],absolutely no
same,CNP concentration generating cGMP sufficient to activate downstream protein kinase G signaling,[3],> 0.163 nM
same,Body length,[4],increases in body length
same,ERK phosphorylation and stature,[5],decreased ERK phosphorylation and corrected the short stature
